Counter-ions that a name gives are not always drawn.
Molecular target: T1, human hNET (Homo sapiens, UniProt P23975)
T1 construct: expressed in transfected cells; host or cells: MDCK-Net6 (MDCK cells stably transfected with hNET)
Test: Functional norepinephrine reuptake assay, Procedure B (6,000 cells/well)
Assay type: cell-based
Settings: not given
Method: For screening, 25 μl aliquots of compound solution at a 1 μM or 10 μM final concentration was delivered directly to cells.
For IC50 determinations, stock compounds were prepared at 10 mM from powder. The stock solution was diluted according to compound testing range. […] On the day of assay, 25 μl of compound solution at the specified concentrations were added to the plates containing cells. A DMSO stock of desipramine was prepared at 10 mM in DMSO and diluted for a final concentration of 20 μM to determine the non-specific reuptake.
MDCK-Net6 cells, stably transfected with human hNET (Pacholczyk, 1991), were maintained in growth media [high glucose DMEM (Gibco Cat. 11995), 10% FBS (dialyzed, heat-inactivated, Sigma, dialysed, heat inactivated, Lot# K0922 or equivalent) 1xPen/Strep, and 500 μg/ml G418 (Gibco Cat. 10131)]. Cells were plated at 300,000/T75 flask and cells split twice weekly.
Cells were plated at 50,000 cells/well (Procedure A) or 6,000 cells/well (Procedure B) on day 1 in BD Falcon Microtest 96-well sterile cell culture plates, Optilux White/Clear Bottom TC plate (VWR; # 62406-466 or equivalent) in growth media and maintained in a cell incubator (37° C., 5% CO2). On Day 2, cells were removed from the cell incubator and the growth media is replaced by 200 μl of assay buffer (25 mm HEPES 120 mM NaCL; 5 mM KCl; 2.5 mM CaCl2; 1.2 mM MgSO4; 2 mg/ml glucose (pH 7.4, 37° C.)) containing 0.2 mg/ml ascorbic acid and 1 μM parglyine. For screening, 25 μl of compound in 4% DMSO was added directly to each well and the plate was incubated for 5 minutes (37° C.). […] The reaction is aspirated from the plate and the cells washed with 250 μl of 50 mM Tris Buffer (4° C.). The plates were left to dry for 1 hour. The cells were lysed using 0.25 M NaOH solution then placed on a shake table and vigorously shaken for 10 minutes. After cell lysis, 100 μl of Microscint 20 (PerkinElmer; #87-051101) was added to the plates and the plates were sealed with film tape and replaced on the shake table for a minimum of 10 minutes. The plates were counted in a TopCount counter (PerkinElmer).
% inhibition=[1−((mean cpm test compound wells−mean cpm non-specific wells)/(mean cpm control wells−mean cpm non-specific wells))]×100
For IC50 determination, raw cpm values were generated in a data file from the TopCount counter. The data was organized using the Microsoft Excel and transferred into PRIZM graphing and statistical program, which calculated the estimated IC50 value. Calculation of IC50 values was made using non-linear regression analysis with a sigmoidal dose response with variable slope. The statistical program used wells containing ^3H norepinephrine only as the maximal NE reuptake determinant and wells containing ^3H norepinephrine plus 20 μM desipramine (AHR-9543) as the minimal NE reuptake determinant (non-specific determinant). Estimation of the IC50 value was completed on a log scale and the line was fit between the maximal and minimal NE reuptake values.

T1 sequence (P23975 whole entry): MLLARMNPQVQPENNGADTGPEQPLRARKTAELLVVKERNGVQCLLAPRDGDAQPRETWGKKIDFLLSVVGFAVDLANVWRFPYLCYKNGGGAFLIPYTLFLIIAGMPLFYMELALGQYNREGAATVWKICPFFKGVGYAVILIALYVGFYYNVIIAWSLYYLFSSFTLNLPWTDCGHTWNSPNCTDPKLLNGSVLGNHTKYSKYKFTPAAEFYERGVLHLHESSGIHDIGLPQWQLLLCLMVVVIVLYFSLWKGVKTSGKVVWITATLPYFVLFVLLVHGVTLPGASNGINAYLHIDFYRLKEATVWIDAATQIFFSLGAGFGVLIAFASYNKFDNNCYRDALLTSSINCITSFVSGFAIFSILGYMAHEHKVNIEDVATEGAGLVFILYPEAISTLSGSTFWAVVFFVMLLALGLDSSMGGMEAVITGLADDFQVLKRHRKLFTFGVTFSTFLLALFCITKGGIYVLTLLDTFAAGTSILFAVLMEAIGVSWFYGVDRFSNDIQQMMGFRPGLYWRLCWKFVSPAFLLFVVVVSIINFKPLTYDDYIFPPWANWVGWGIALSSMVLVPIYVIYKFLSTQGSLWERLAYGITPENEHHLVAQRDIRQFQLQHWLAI

SMILES | IC50
CNCCC[C@@H]1Cc2cc(F)ccc2N(c2ccccc2F)S1(=O)=O (single isomer, unassigned) [Example 110] | 11 nM
CNCCC[C@@H]1Cc2ccccc2N(c2c(F)cccc2F)S1(=O)=O (single isomer, unassigned) [Example 122] | 5 nM
CNCCC[C@H]1Cc2cc(F)ccc2N(c2ccccc2F)S1(=O)=O (single isomer, unassigned) [Example 109] | 93 nM

Same assay, conditions: MDCK-Net6 cells, 6,000 cells/well, 16 nM 3H-norepinephrine; read-out: Procedure B hNET uptake IC50

SMILES | IC50
CNCCC[C@@H]1Cc2cc(F)ccc2N(c2ccccc2C)S1(=O)=O (single isomer, unassigned) [Example 162] | 135 nM
CNCCC[C@@H]1Cc2ccccc2N(c2ccccc2F)S1(=O)=O (single isomer, unassigned) [Example 91] | 4 nM
CNCCC[C@@H]1Cc2cc(Cl)ccc2N(c2ccccc2F)S1(=O)=O (single isomer, unassigned) [Example 177] | 43 nM
CNCCC[C@H]1Oc2ccccc2N(c2ccccc2)S1(=O)=O (single isomer, unassigned) [Example 13] | 38.7 nM
CNCCC[C@H]1Cc2ccccc2N(c2ccccc2F)S1(=O)=O (single isomer, unassigned) [Example 74, Hydrochloride] | 58.5 nM
CNCCC[C@@H]1Cc2cc(F)ccc2N(c2ccccc2C#N)S1(=O)=O (single isomer, unassigned) [Example 165] | 206 nM
C=C(CNC)CC1Cc2ccccc2N(c2ccccc2)S1(=O)=O (centres unmarked) [Example 132, 2-[(2,2-dioxido-1-phenyl-3,4-dihydro-1H-2,1-benzothiazin-3-yl)methyl]-N-methylprop-2-en-1-amine] | 16 nM
CNCCC[C@H]1Cc2cc(F)ccc2N(c2ccc(F)cc2C)S1(=O)=O (single isomer, unassigned) [Example 170] | 343 nM
CCCNCCC1Oc2ccccc2N(c2ccccc2)S1(=O)=O (centres unmarked) [Example 27, N-[2-(2,2-dioxido-1-phenyl-1H-4,2,1-benzoxathiazin-3-yl)ethyl]propan-1-amine] | 4410 nM
CNCCCC1Oc2cc(C)ccc2N(c2ccccc2)S1(=O)=O (centres unmarked) [Example 51, N-methyl-3-(6-methyl-2,2-dioxido-1-phenyl-1H-4,2,1-benzoxathiazin-3-yl)propan-1-amine] | 249 nM
CNCCCC1Oc2cc(F)ccc2N(c2ccccc2F)S1(=O)=O (centres unmarked) [Example 129, 3-[6-fluoro-1-(2-fluorophenyl)-2,2-dioxido-1H-4,2,1-benzoxathiazin-3-yl]-N-methylpropan-1-amine hydrochloride] | 95 nM
O=S1(=O)C(CCCN2CCNCC2)Oc2ccccc2N1c1ccccc1 (centres unmarked) [Example 76, 1-phenyl-3-(3-piperazin-1-ylpropyl)-1H-4,2,1-benzoxathiazine2,2-dioxide Dihydrochloride] | 5050 nM
CCCCNCCC1Oc2ccccc2N(c2ccccc2)S1(=O)=O (centres unmarked) [Example 31, N-[2-(2,2-dioxido-1-phenyl-1H-4,2,1-benzoxathiazin-3-yl)ethyl]butan-1-amine] | 1660 nM
CNCCCC1Oc2ccccc2N(c2ccc(OC)cc2)S1(=O)=O (centres unmarked) [Example 19, 3-[1-(4-methoxyphenyl)-2,2-dioxido-1H-4,2,1-benzoxathiazin-3-yl]-N-methylpropan-1-amine] | 1200 nM
CNCCCC1Oc2ccccc2N(c2cccnc2)S1(=O)=O (centres unmarked) [Example 56, 3-(2,2-dioxido-1-pyridin-3-yl-1H-4,2,1-benzoxathiazin-3-yl)-N-methylpropan-1-amine] | 345 nM
CNCCCC1Cc2cc(F)ccc2N(c2ccc(C)cc2F)S1(=O)=O (racemic) [Example 148, 3-[6-fluoro-1-(2-fluoro-4-methylphenyl)-2,2-dioxido-3,4-dihydro-1H-2,1-benzothiazin-3-yl]-N-methylpropan-1-amine] | 51 nM
CNCCC[C@@H]1Cc2cc(F)ccc2N(c2ccccc2Cl)S1(=O)=O (single isomer, unassigned) [Example 159] | 133 nM

Continued, values first:

IC50 | SMILES
3320 nM | NCC[C@@H]1Oc2ccccc2N(c2ccccc2)S1(=O)=O (single isomer, unassigned) [Example 103]
1540 nM | CNCCC[C@H]1Cc2ccccc2N(c2ccccn2)S1(=O)=O (single isomer, unassigned) [Example 127]
822 nM | CN(CCCC1Oc2ccccc2N(c2ccccc2)S1(=O)=O)Cc1ccccc1 (centres unmarked) [Example 58, N-benzyl-3-(2,2-dioxido-1-phenyl-1H-4,2,1-benzoxathiazin-3-yl)-N-methylpropan-1-amine hydrochloride]
597 nM | NCCCC1Oc2ccccc2N(c2ccccc2)S1(=O)=O (centres unmarked) [Example 33, 3-(2,2-dioxido-1-phenyl-1H-4,2,1-benzoxathiazin-3-yl)propan-1-amine]
407 nM | CNCCCC1Oc2ccc(-c3ccccc3)cc2N(c2ccccc2)S1(=O)=O (centres unmarked) [Example 54, 3-(2,2-dioxido-1,7-diphenyl-1H-4,2,1-benzoxathiazin-3-yl)-N-methylpropan-1-amine]
353 nM | CNCCCC1Oc2ccccc2N(c2cccc(OC)c2)S1(=O)=O (centres unmarked) [Example 18, 3-[1-(3-methoxyphenyl)-2,2-dioxido-1H-4,2,1-benzoxathiazin-3-yl]-N-methylpropan-1-amine]
304 nM | CNCCCC1Cc2cc(F)ccc2N(c2ccccc2OC)S1(=O)=O (racemic) [Example 166, 3-[6-fluoro-1-(2-methoxyphenyl)-2,2-dioxido-3,4-dihydro-1H-2,1-benzothiazin-3-yl]-N-methylpropan-1-amine]
231 nM | O=S1(=O)C(CN2CC3CC2CN3)Oc2ccccc2N1c1ccccc1 (centres unmarked) [Example 143, 3-(2,5-diazabicyclo[2.2.1]hept-2-ylmethyl)-1-phenyl-1H-4,2,1-benzoxathiazine 2,2-dioxide]
101 nM | CNCC[C@H](O)[C@@H]1Cc2ccccc2N(c2ccccc2)S1(=O)=O (single isomer, unassigned) [Example 114]
96 nM | CNCCC[C@H]1Cc2ccccc2N(c2ccccc2)S1(=O)=O (single isomer, unassigned) [Example 10]
92 nM | CNCCCC1Cc2cc(F)ccc2N(c2ccc(F)cc2F)S1(=O)=O (racemic) [Example 111, 3-[1-(2,4-difluorophenyl)-6-fluoro-2,2-dioxido-3,4-dihydro-1H-2,1-benzothiazin-3-yl]-N-methylpropan-1-amine]
80.7 nM | CNCCCC1Sc2ccccc2N(c2cccc(F)c2)S1(=O)=O (centres unmarked) [Example 61, 3-[1-(3-fluorophenyl)-2,2-dioxido-1H-2,4,1-benzodithiazin-3-yl]-N-methylpropan-1-amine hydrochloride]
69.4 nM | CNCCC[C@H]1Oc2cc3ccccc3cc2N(c2ccccc2)S1(=O)=O (single isomer, unassigned) [Example 71, Hydrochloride]
31 nM | CNCCC[C@H]1Oc2cc(F)ccc2N(c2ccccc2F)S1(=O)=O (single isomer, unassigned) [Example 131, Hydrochloride]
10 nM | CNCCCC1Cc2ccccc2N(c2c(F)cccc2F)S1(=O)=O (racemic) [Example 120, 3-[1-(2,6-difluorophenyl)-2,2-dioxido-3,4-dihydro-1H-2,1-benzothiazin-3-yl]-N-methylpropan-1-amine]

Same assay, conditions: MDCK-Net6 cells, 6,000 cells/well; Conc 6000 nM (6 μM); read-out: Procedure B hNET uptake (% inhibition)

inhibition at 6 µM | SMILES
15% | CC(C)NCCCC1Oc2ccccc2N(c2ccccc2)S1(=O)=O (centres unmarked) [Example 37, 3-(2,2-dioxido-1-phenyl-1H-4,2,1-benzoxathiazin-3-yl)-N-isopropylpropan-1-amine]
53% | CNCC1Oc2ccccc2N(c2ccccc2)S1(=O)=O (centres unmarked) [Example 144, 1-(2,2-dioxido-1-phenyl-1H-4,2,1-benzoxathiazin-3-yl)-N-methylmethanamine]
30% | CN1CCN(CC2Oc3ccccc3N(c3ccccc3)S2(=O)=O)CC1 (centres unmarked) [Example 141, 3-[(4-methylpiperazin-1-yl)methyl]-1-phenyl-1H-4,2,1-benzoxathiazine 2,2-dioxide]
